Columns and labels:
Format in all cases: functional
[1] = tested on: Staphylococcus aureus; assay: Antibacterial activity against methicillin-resistant Staphylococcus aureus 11 assessed as bacterial growth inhibition in presence of 50 ug/ml calcium ions by CLSI protocol based broth microdilution method
[2] = tested on: Staphylococcus aureus; assay: Antibacterial activity against methicillin-resistant Staphylococcus aureus 14 assessed as bacterial growth inhibition in presence of 50 ug/ml calcium ions by CLSI protocol based broth microdilution method
[3] = tested on: Staphylococcus aureus; assay: Antibacterial activity against methicillin-resistant Staphylococcus aureus 86 assessed as bacterial growth inhibition in presence of 50 ug/ml calcium ions by CLSI protocol based broth microdilution method
[4] = tested on: Staphylococcus aureus; assay: Antibacterial activity against methicillin-resistant Staphylococcus aureus 88 assessed as bacterial growth inhibition in presence of 50 ug/ml calcium ions by CLSI protocol based broth microdilution method
[5] = tested on: Staphylococcus aureus; assay: Antibacterial activity against Staphylococcus aureus ATCC 29213 assessed as bacterial growth inhibition in presence of 50 ug/ml calcium ions by CLSI protocol based broth microdilution method
[6] = tested on: Enterococcus faecalis; assay: Antibacterial activity against Streptococcus faecalis assessed as bacterial growth inhibition in presence of 50 ug/ml calcium ions by CLSI protocol based broth microdilution method
[7] = tested on: Enterococcus; assay: Antibacterial activity against Enterococcus 6 assessed as bacterial growth inhibition in presence of 50 ug/ml calcium ions by CLSI protocol based broth microdilution method
[8] = tested on: Enterococcus; assay: Antibacterial activity against Enterococcus 60 assessed as bacterial growth inhibition in presence of 50 ug/ml calcium ions by CLSI protocol based broth microdilution method
[9] = tested on: Enterococcus faecalis; assay: Antibacterial activity against Enterococcus faecalis ATCC 29212 assessed as bacterial growth inhibition in presence of 50 ug/ml calcium ions by CLSI protocol based broth microdilution method

| SMILES | MIC [1] | MIC [2] | MIC [3] | MIC [4] | MIC [5] | MIC [6] | MIC [7] | MIC [8] | MIC [9] |
| --- | --- | --- | --- | --- | --- | --- | --- | --- | --- |
| CCCCCCCCCC(=O)N[C@@H](Cc1c[nH]c2ccccc12)C(=O)N[C@@H](CC(N)=O)C(=O)N[C@@H](CC(=O)O)C(=O)N[C@@H]1C(=O)NCC(=O)N[C@@H](CCCNC(=N)N)C(=O)N[C@@H](CC(=O)O)C(=O)N[C@H](C)C(=O)N[C@@H](CC(=O)O)C(=O)NCC(=O)N[C@H](CO)C(=O)N[C@@H]([C@@H](C)CC(=O)O)C(=O)N[C@@H](CC(=O)c2ccccc2N)C(=O)O[C@@H]1C | 8 µg/mL | 16 µg/mL | 2 µg/mL | 1 µg/mL | 2 µg/mL | 8 µg/mL | 32 µg/mL | 16 µg/mL | ≥ 32 µg/mL |
| CCCCCCCCCC(=O)N[C@@H](Cc1c[nH]c2ccccc12)C(=O)N[C@@H](CC(N)=O)C(=O)N[C@@H](CC(=O)O)C(=O)N[C@@H]1C(=O)NCC(=O)N[C@@H](CCCN)C(=O)N[C@@H](CC(=O)O)C(=O)N[C@H](C)C(=O)N[C@@H](C(C)CC(=O)O)C(=O)NCC(=O)N[C@H](CO)C(=O)N[C@@H](C(C)CC(=O)O)C(=O)N[C@@H](CC(=O)c2ccccc2N)C(=O)O[C@@H]1C (single isomer, unassigned) | ≥ 32 µg/mL | ≥ 32 µg/mL | ≥ 32 µg/mL | ≥ 32 µg/mL | ≥ 32 µg/mL | ≥ 32 µg/mL | ≥ 32 µg/mL | ≥ 32 µg/mL | ≥ 32 µg/mL |
| CCCCCCCCCC(=O)N[C@@H](Cc1c[nH]c2ccccc12)C(=O)N[C@@H](CC(N)=O)C(=O)N[C@@H](CC(=O)O)C(=O)N[C@@H]1C(=O)NCC(=O)N[C@@H](CCCN)C(=O)N[C@@H](CC(=O)O)C(=O)N[C@H](C)C(=O)N[C@@H](CC(=O)O)C(=O)NCC(=O)N[C@H](CO)C(=O)N[C@@H](C)C(=O)N[C@@H](CC(=O)c2ccccc2N)C(=O)O[C@@H]1C | ≥ 64 µg/mL | ≥ 64 µg/mL | ≥ 64 µg/mL | ≥ 64 µg/mL | ≥ 64 µg/mL | ≥ 64 µg/mL | ≥ 64 µg/mL | ≥ 64 µg/mL | ≥ 64 µg/mL |
| CCCCCCCCCC(=O)N[C@@H](Cc1c[nH]c2ccccc12)C(=O)N[C@@H](CC(N)=O)C(=O)N[C@@H](CC(=O)O)C(=O)N[C@@H]1C(=O)NCC(=O)N[C@@H](CCCCN)C(=O)N[C@@H](CC(=O)O)C(=O)N[C@H](C)C(=O)N[C@@H](CC(=O)O)C(=O)NCC(=O)N[C@H](CO)C(=O)N[C@@H]([C@@H](C)CC(=O)O)C(=O)N[C@@H](CC(=O)c2ccccc2N)C(=O)O[C@@H]1C | 16 µg/mL | ≥ 32 µg/mL | 1 µg/mL | 1 µg/mL | 1 µg/mL | 8 µg/mL | ≥ 32 µg/mL | 16 µg/mL | ≥ 32 µg/mL |
| CCCCCCCCCC(=O)N[C@@H](Cc1ccncc1)C(=O)N[C@@H](CC(N)=O)C(=O)N[C@@H](CC(=O)O)C(=O)N[C@@H]1C(=O)NCC(=O)N[C@@H](CCCN)C(=O)N[C@@H](CC(=O)O)C(=O)N[C@H](C)C(=O)N[C@@H](CC(=O)O)C(=O)NCC(=O)N[C@H](CO)C(=O)N[C@@H]([C@@H](C)CC(=O)O)C(=O)N[C@@H](CC(=O)c2ccccc2N)C(=O)O[C@@H]1C | ≥ 32 µg/mL | ≥ 32 µg/mL | ≥ 32 µg/mL | ≥ 32 µg/mL | ≥ 32 µg/mL | ≥ 32 µg/mL | ≥ 32 µg/mL | ≥ 32 µg/mL | ≥ 32 µg/mL |
| C[C@H]1NC(=O)[C@H](CC(=O)O)NC(=O)[C@H](CCCN)NC(=O)CNC(=O)[C@@H](NC(=O)[C@H](CC(=O)O)NC(=O)[C@H](CC(N)=O)NC(=O)[C@H](Cc2c[nH]c3ccccc23)NC(=O)c2ccc(C#Cc3ccccc3)cc2)[C@@H](C)OC(=O)[C@H](CC(=O)c2ccccc2N)NC(=O)[C@H]([C@@H](C)CC(=O)O)NC(=O)[C@@H](CO)NC(=O)CNC(=O)[C@H](CC(=O)O)NC1=O | 0.25 µg/mL | 0.5 µg/mL | 0.5 µg/mL | 0.5 µg/mL | 0.5 µg/mL | 1 µg/mL | 8 µg/mL | 2 µg/mL | 8 µg/mL |
| CCCCCCCCCC(=O)N[C@@H](C)C(=O)N[C@@H](CC(N)=O)C(=O)N[C@@H](CC(=O)O)C(=O)N[C@@H]1C(=O)NCC(=O)N[C@@H](CCCN)C(=O)N[C@@H](CC(=O)O)C(=O)N[C@H](C)C(=O)N[C@@H](CC(=O)O)C(=O)NCC(=O)N[C@H](CO)C(=O)N[C@@H]([C@@H](C)CC(=O)O)C(=O)N[C@@H](CC(=O)c2ccccc2N)C(=O)O[C@@H]1C | ≥ 32 µg/mL | ≥ 32 µg/mL | ≥ 32 µg/mL | ≥ 32 µg/mL | ≥ 32 µg/mL | ≥ 64 µg/mL | ≥ 64 µg/mL | ≥ 64 µg/mL | ≥ 64 µg/mL |
| CCCCCCCCCC(=O)N[C@@H](Cc1c[nH]c2ccccc12)C(=O)N[C@@H](CC(N)=O)C(=O)N[C@@H](CC(=O)O)C(=O)N[C@@H]1C(=O)NCC(=O)N[C@@H](Cc2c[nH]cn2)C(=O)N[C@@H](CC(=O)O)C(=O)N[C@H](C)C(=O)N[C@@H](CC(=O)O)C(=O)NCC(=O)N[C@H](CO)C(=O)N[C@@H]([C@@H](C)CC(=O)O)C(=O)N[C@@H](CC(=O)c2ccccc2N)C(=O)O[C@@H]1C | 16 µg/mL | 16 µg/mL | 8 µg/mL | 8 µg/mL | 8 µg/mL | ≥ 32 µg/mL | ≥ 32 µg/mL | ≥ 32 µg/mL | ≥ 32 µg/mL |
| CCCCCCCCCC(=O)N[C@@H](Cc1c[nH]c2ccccc12)C(=O)N[C@@H](CC(N)=O)C(=O)N[C@@H](CC(=O)O)C(=O)N[C@@H]1C(=O)NCC(=O)N[C@@H](CO)C(=O)N[C@@H](CC(=O)O)C(=O)N[C@H](C)C(=O)N[C@@H](CC(=O)O)C(=O)NCC(=O)N[C@H](CO)C(=O)N[C@@H]([C@@H](C)CC(=O)O)C(=O)N[C@@H](CC(=O)c2ccccc2N)C(=O)O[C@@H]1C | 4 µg/mL | 4 µg/mL | 2 µg/mL | 1 µg/mL | 2 µg/mL | 4 µg/mL | 32 µg/mL | ≥ 32 µg/mL | ≥ 32 µg/mL |
| CCCCCCCCCC(=O)N[C@@H](Cc1c[nH]c2ccccc12)C(=O)N[C@@H](CC(N)=O)C(=O)N[C@@H](CC(=O)O)C(=O)N[C@@H]1C(=O)NCC(=O)N[C@@H](C(C)C)C(=O)N[C@@H](CC(=O)O)C(=O)N[C@H](C)C(=O)N[C@@H](CC(=O)O)C(=O)NCC(=O)N[C@H](CO)C(=O)N[C@@H]([C@@H](C)CC(=O)O)C(=O)N[C@@H](CC(=O)c2ccccc2N)C(=O)O[C@@H]1C | ≥ 32 µg/mL | ≥ 32 µg/mL | 8 µg/mL | 8 µg/mL | 8 µg/mL | ≥ 32 µg/mL | ≥ 32 µg/mL | ≥ 32 µg/mL | ≥ 32 µg/mL |
| CCCCCCCCCC(=O)N[C@@H](Cc1c[nH]c2ccccc12)C(=O)N[C@@H](CC(N)=O)C(=O)N[C@@H](CC(=O)O)C(=O)N[C@@H]1C(=O)NCC(=O)N[C@@H](CCCN)C(=O)N[C@@H](CC(=O)O)C(=O)N[C@H](C)C(=O)N[C@H](CC(=O)O)C(=O)NCC(=O)N[C@H](CO)C(=O)N[C@@H]([C@@H](C)CC(=O)O)C(=O)N[C@@H](CC(=O)c2ccccc2N)C(=O)O[C@@H]1C | ≥ 32 µg/mL | ≥ 32 µg/mL | 16 µg/mL | 16 µg/mL | 16 µg/mL | ≥ 32 µg/mL | ≥ 32 µg/mL | ≥ 32 µg/mL | ≥ 32 µg/mL |
| CCCCCCCCCC(=O)N[C@@H](Cc1ccc(OC)cc1)C(=O)N[C@@H](CC(N)=O)C(=O)N[C@@H](CC(=O)O)C(=O)N[C@@H]1C(=O)NCC(=O)N[C@@H](CCCN)C(=O)N[C@@H](CC(=O)O)C(=O)N[C@H](C)C(=O)N[C@@H](CC(=O)O)C(=O)NCC(=O)N[C@H](CO)C(=O)N[C@@H]([C@@H](C)CC(=O)O)C(=O)N[C@@H](CC(=O)c2ccccc2N)C(=O)O[C@@H]1C | 16 µg/mL | 4 µg/mL | 2 µg/mL | 2 µg/mL | 2 µg/mL | 8 µg/mL | ≥ 32 µg/mL | ≥ 32 µg/mL | ≥ 32 µg/mL |
| CCCCCCCCCC(=O)N[C@@H](Cc1c[nH]c2ccccc12)C(=O)N[C@@H](CC(N)=O)C(=O)N[C@@H](CC(=O)O)C(=O)N[C@@H]1C(=O)NCC(=O)N[C@@H](Cc2ccc(O)cc2)C(=O)N[C@@H](CC(=O)O)C(=O)N[C@H](C)C(=O)N[C@@H](CC(=O)O)C(=O)NCC(=O)N[C@H](CO)C(=O)N[C@@H]([C@@H](C)CC(=O)O)C(=O)N[C@@H](CC(=O)c2ccccc2N)C(=O)O[C@@H]1C | 1 µg/mL | 0.5 µg/mL | 4 µg/mL | 4 µg/mL | 1 µg/mL | ≥ 32 µg/mL | ≥ 32 µg/mL | 16 µg/mL | ≥ 32 µg/mL |
| CCCCCCCCCC(=O)N[C@@H](Cc1c[nH]c2ccccc12)C(=O)N[C@@H](CC(N)=O)C(=O)N[C@@H](CC(=O)O)C(=O)N[C@@H]1C(=O)NCC(=O)N[C@@H](CCN)C(=O)N[C@@H](CC(=O)O)C(=O)N[C@H](C)C(=O)N[C@@H](CC(=O)O)C(=O)NCC(=O)N[C@H](CO)C(=O)N[C@@H]([C@@H](C)CC(=O)O)C(=O)N[C@@H](CC(=O)c2ccccc2N)C(=O)O[C@@H]1C | 2 µg/mL | 0.5 µg/mL | 0.25 µg/mL | 0.25 µg/mL | 0.25 µg/mL | – | 16 µg/mL | 8 µg/mL | 16 µg/mL |
| CCCCCCCCCC(=O)N[C@@H](Cc1c[nH]c2ccccc12)C(=O)N[C@@H](CC(N)=O)C(=O)N[C@@H](CC(=O)O)C(=O)N[C@@H]1C(=O)NCC(=O)N[C@@H](CN)C(=O)N[C@@H](CC(=O)O)C(=O)N[C@H](C)C(=O)N[C@@H](CC(=O)O)C(=O)NCC(=O)N[C@H](CO)C(=O)N[C@@H]([C@@H](C)CC(=O)O)C(=O)N[C@@H](CC(=O)c2ccccc2N)C(=O)O[C@@H]1C | 8 µg/mL | 1 µg/mL | 1 µg/mL | 0.5 µg/mL | 1 µg/mL | – | ≥ 32 µg/mL | 8 µg/mL | ≥ 32 µg/mL |
